We go through nine compounds from US8268853B2, “3,9-diazaspiro[5,5]undecane amides and ureas and methods of use thereof” (Abbott Laboratories, priority 2009, dated 2012).

Test [1] has as its target T1, hERG cardiac potassium channel (Homo sapiens, UniProt Q12809).
T1 construct: expressed in transfected cells; host or cells: HEK-293 cells (membrane homogenate)
Briefly: [3H]dofetilide/HEK-293 membrane competition binding assay. The note with it: displacement of [3H]dofetilide, HEK-293 membrane homogenates expressing hERG; Ki from IC50 by Cheng-Prusoff. The source says:
Drugs that block the cardiac potassium channel encoded by the human ether-a-go-go gene (hERG) have been associated clinically with QT interval prolongation, proarrhythmia, and in some rare cases, sudden cardiac death. The identification of drugs that block hERG has become a critical component of the safety profile. The [^3H]dofetilide/HEK-293 membrane competition binding assay described below permits the ranking of compounds for their potential to block the hERG potassium channel.
[^3H]dofetilide/HEK-293 Membrane Competition Binding Assay
The binding affinity of test drugs for the hERG cardiac potassium channel was determined by their ability to displace tritiated dofetilide (a class III antiarrhythmic drug and potent hERG blocker) in membrane homogenates from HEK-293 cells heterogously expressing the hERG channel. The assay was performed as previously described (Diaz, G.; Daniell, K.; Leitza, S. T.; Martin, R. L.; Su, Z.; McDermott, J. S.; Cox, B. F.; Gintant, G. A. The [^3H]dofetilide binding assay is a predictive screening tool for hERG blockade and proarrhythmia: Comparison of intact cell and membrane preparations and effects of altering [K^+]O. Journal of Pharmacological and Toxicological Methods 2004, 50, 187-199.). Briefly, drug dilutions were prepared from 10 mM dimethyl sulfoxide stocks and the following were added to a 96-well polystyrene plate (Perkin-Elmer Optiplate): 20 μL of assay binding buffer (for total bounds), or 1 μM astemizole (for non-specific bounds), or test drug, 50 μL of [^3H]dofetilide (20 nM, ˜80 Ci/mmol specific activity), and 130 μL of membrane homogenate (final protein concentration of 30 μg per well). The plates were incubated at ambient temperature for 45 minutes, aspirated onto GF/B filter plates (Perkin-Elmer), and washed with 2 mL of cold wash buffer. After allowing the plates to dry, 50 μL of scintillant (Perkin-Elmer MicroScint 20) were added to each well and the radioactivity was counted in a Perkin-Elmer Topcount NXT scintillation counter. IC50 determinations were calculated from competition curves using 6 drug concentrations, half-log apart, starting at a high concentration of 100 μM (final assay dimethyl sulfoxide concentration=1%) using a four-parameter logistic equation. Ki values were derived from the calculated IC50 values by using the Cheng and Prusoff (Cheng, Y.; Prusoff, W. H. Relationship between the inhibition constant (KI) and the concentration of inhibitor which causes 50 percent inhibition (I50) of an enzymatic reaction. Biochemical Pharmacology 1973, 22(23), 3099-3108) equation (Ki=IC50/1+[ligand]/Kd) using Kd values for [^3H]dofetilide obtained from saturation assays previously described (Diaz et al., 2004).

Test [2] concerns the target T2, human α4β2 NNR (Homo sapiens, UniProt P17787+P43681).
T2 construct: expressed in transfected cells
The test is described as follows: Calcium flux assay (FLIPR), potentiation of submaximal nicotine response in HEK 293 cells expressing α4β2. It counts as cell-based. The note with it: HEK 293 cells expressing human α4β2; potentiation of submaximal (EC20-30%) agonist such as nicotine; read-out: EC50 (α4β2 PAM). The source says:
One manner to characterize α4β2 PAM activity is by characterization in clonal cell lines (for example, human embryonic kidney 293 cells) expressing the human neuronal nicotinic acetylcholine receptor subtype α4β2, particularly by use of Fluorescent Image Plate Reader technology. Effects on calcium flux or membrane potential changes can be assessed. Such assays have been reported and further details for carrying out the assays can be obtained in International Publication No. WO 2006/114400. Another method to identify and characterize allosteric modulator activity is by expressing the α4β2 subunits in Xenopus oocytes, and by measuring electrophysiological effects on ligand-evoked current responses as previously described in Curtis, L., et al., Molecular Pharmacology, 61: 127-135, 2002.
To determine the effectiveness of representative compounds of this invention as ligands for α4β2 PAM activity, the compounds of the invention can be evaluated according to the Calcium Flux Assay described below.
Calcium Flux Assays using Cells Expressing NNR Subtypes
Human embryonic kidney (HEK) 293 cells stably expressing human α4β2 or α3β4 combinations are grown to confluency in 162 cm^2 tissue culture flasks in DMEM media supplemented with 10% FBS and 25 μg/mL zeocin and 200 μg/mL hygromycin B. Cells expressing rat or ferret subunits may also be used. For assessing α3* or α7* selectivity, IMR-32 cells may also be used. IMR-32 neuroblastoma cells (ATCC) are grown to confluency in 162 cm^2 tissue culture flasks in minimum essential media supplemented with 10% FBS and 1 mM sodium pyruvate, 1% non-essential amino acids and 1% antibiotic-antimycotic. For the calcium flux assay, the cells are then dissociated using cell dissociation buffer and 100-150 μL per well of 3.5×10^5 cells/mL cell suspension (˜50,000-100,000 cells/well) was plated into 96-well black plates (poly-D-lysine precoated) with clear bottom and maintained for 24-48 hours in a tissue culture incubator at 37° C. under an atmosphere of 5% CO2: 95% air. Other clonal cell lines or primary cell cultures that express endogenous α4* nicotinic receptors may also be used in this assay. Calcium flux was measured using calcium-3 assay kit (Molecular Devices, Sunnyvale, Calif.) or fluo-4 (Invitrogen). A stock solution of the dye was prepared by dissolving each vial supplied by the vendor in Hank's balanced salt solution buffer (HBSS) or 150 mM NMDG, 20 mM calcium chloride containing 10 mM HEPES. The stock solution was diluted 1:20 using the same buffer before use. The growth media was removed from the cells. The cells were loaded with 100 μL of the dye per well and incubated at room temperature for up to one hour for HEK 293 clonal stable cell lines or 30 minutes-45 minutes at 37° C. for IMR-32 cells. Fluorescence measurements were read simultaneously from all the wells by a Fluorometic Imaging Plate Reader (FLIPR) at an excitation wavelength of 480 nm and an emission wavelength of 520 nm. Baseline fluorescence was measured for the first 6 seconds at which 3× concentrations of modulator/test compounds were added to the cell plate at 50 μL and incubated for five minutes. The fluorescence intensity was captured every second for the first 1 minute followed by every 5 seconds for an additional 4 minutes. This procedure was followed by 50 μL of 4× concentration of agonist and readings were taken for a period of 3-5 minutes as described above.
The ability of test compounds to positively modulate the response (i.e., increase the response) induced by a submaximal concentration of agonist (EC20-30%) such as nicotine is measured. Potentiation is measured based on peak fluorescence responses by screening compounds at fixed concentrations or in a concentration-response manner to derive EC50 values. The concentration dependence of changes in fluorescence responses is fitted by nonlinear regression analysis (GraphPad Prism, San Diego, Calif.) to obtain EC50 values. […]

T2 sequence (P43681 29-627 limits assumed): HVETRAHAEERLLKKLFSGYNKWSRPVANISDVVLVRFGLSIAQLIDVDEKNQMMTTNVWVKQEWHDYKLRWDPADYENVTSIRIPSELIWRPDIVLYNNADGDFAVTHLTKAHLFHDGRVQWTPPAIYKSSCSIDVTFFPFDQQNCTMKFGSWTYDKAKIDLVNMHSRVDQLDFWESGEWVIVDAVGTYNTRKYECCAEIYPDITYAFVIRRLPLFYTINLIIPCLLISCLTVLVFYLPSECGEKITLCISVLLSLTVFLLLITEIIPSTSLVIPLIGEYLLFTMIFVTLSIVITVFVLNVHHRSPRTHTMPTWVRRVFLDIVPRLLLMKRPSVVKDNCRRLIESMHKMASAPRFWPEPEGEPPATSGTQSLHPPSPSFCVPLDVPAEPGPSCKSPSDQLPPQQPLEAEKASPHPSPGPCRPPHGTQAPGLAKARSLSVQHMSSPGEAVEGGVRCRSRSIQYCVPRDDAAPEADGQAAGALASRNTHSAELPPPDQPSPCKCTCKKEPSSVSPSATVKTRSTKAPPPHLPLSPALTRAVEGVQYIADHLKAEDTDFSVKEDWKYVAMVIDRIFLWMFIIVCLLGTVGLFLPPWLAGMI
T2 sequence (P17787 26-502): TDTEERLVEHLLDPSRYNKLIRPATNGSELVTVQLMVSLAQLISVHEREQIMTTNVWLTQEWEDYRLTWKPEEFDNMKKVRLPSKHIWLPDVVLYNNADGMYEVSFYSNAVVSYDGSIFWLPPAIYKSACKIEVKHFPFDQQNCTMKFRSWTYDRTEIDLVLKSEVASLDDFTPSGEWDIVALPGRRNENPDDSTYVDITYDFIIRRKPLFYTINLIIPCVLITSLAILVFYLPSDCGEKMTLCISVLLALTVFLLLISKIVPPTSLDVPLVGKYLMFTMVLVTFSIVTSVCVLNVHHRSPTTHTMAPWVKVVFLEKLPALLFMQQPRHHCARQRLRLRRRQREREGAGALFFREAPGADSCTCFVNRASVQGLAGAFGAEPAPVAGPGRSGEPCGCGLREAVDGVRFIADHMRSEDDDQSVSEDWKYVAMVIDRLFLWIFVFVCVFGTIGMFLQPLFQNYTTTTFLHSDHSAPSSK
T1 sequence (Q12809 whole entry): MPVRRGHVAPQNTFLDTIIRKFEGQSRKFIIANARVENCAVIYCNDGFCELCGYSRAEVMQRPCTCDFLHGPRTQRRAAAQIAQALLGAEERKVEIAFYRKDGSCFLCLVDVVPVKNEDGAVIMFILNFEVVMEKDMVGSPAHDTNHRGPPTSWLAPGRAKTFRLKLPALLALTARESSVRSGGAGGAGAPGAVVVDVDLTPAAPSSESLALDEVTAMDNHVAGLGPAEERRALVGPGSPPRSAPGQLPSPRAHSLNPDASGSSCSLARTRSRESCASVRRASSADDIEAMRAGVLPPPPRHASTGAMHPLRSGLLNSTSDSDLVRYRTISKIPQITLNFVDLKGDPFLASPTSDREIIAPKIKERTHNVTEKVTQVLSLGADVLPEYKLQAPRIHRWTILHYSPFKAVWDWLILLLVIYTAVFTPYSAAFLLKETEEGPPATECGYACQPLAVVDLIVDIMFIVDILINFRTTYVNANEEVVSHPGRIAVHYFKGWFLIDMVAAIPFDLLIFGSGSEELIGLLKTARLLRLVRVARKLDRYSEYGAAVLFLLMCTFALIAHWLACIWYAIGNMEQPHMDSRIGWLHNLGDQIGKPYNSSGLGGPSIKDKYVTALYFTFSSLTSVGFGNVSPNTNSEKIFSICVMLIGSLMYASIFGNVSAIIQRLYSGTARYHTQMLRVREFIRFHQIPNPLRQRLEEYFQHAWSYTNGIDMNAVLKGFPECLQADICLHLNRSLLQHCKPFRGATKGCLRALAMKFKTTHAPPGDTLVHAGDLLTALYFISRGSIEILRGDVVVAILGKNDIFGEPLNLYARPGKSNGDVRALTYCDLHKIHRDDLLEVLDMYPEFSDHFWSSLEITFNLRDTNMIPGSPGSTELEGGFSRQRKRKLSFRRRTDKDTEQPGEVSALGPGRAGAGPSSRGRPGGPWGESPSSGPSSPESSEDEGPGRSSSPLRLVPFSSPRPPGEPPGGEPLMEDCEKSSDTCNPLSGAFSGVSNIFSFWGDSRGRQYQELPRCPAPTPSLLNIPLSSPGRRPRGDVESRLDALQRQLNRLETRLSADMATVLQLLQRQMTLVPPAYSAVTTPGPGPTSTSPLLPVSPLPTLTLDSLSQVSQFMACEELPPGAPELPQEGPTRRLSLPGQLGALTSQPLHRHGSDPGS

In turn, `COc1cc(C(=O)N2CCC3(CCN(C)CC3)CC2)ccc1F` [Example 2, 3-(4-fluoro-3-methoxybenzoyl)-9-methyl-3,9-diazaspiro[5.5]undecane] showed a Ki in test [1] greater than 53000 nM. The EC50 in test [2] stood at 970 nM.
Taken in the same sequence, the figures for `COc1ccc(C(=O)N2CCC3(CCN(C)CC3)CC2)cc1F` [Example 3, 3-(3-fluoro-4-methoxybenzoyl)-9-methyl-3,9-diazaspiro[5.5]undecane] were 13000 nM and 4300 nM.
The matching figures for `COc1ccc(C(=O)N2CCC3(CCN(C)CC3)CC2)cc1Cl` [Example 4, 3-(3-chloro-4-methoxybenzoyl)-9-methyl-3,9-diazaspiro[5.5]undecane]: 16000 nM and 160 nM.
Taken in the same sequence, the figures for `COc1c(Cl)cc(C(=O)N2CCC3(CCN(C)CC3)CC2)cc1Cl` [Example 5, 3-(3,5-dichloro-4-methoxybenzoyl)-9-methyl-3,9-diazaspiro[5.5]undecane] were 19000 nM and 40 nM.
In turn, `COc1cc(C(=O)N2CCC3(CCN(C)CC3)CC2)cc(Cl)c1OC` [Example 6, 3-(3-chloro-4,5-dimethoxybenzoyl)-9-methyl-3,9-diazaspiro[5.5]undecane] had a Ki in test [1] greater than 54000 nM. In addition, the EC50 in test [2] turned out to be 360 nM.
The matching figures for `COc1ccc(NC(=O)N2CCC3(CCN(C)CC3)CC2)cc1F` [Example 7, N-(3-fluoro-4-methoxyphenyl)-9-methyl-3,9-diazaspiro[5.5]undecane-3-carboxamide]: 8500 nM and 1620 nM.
As for `COc1ccc(NC(=O)N2CCC3(CCN(C)CC3)CC2)cc1Cl` [Example 8, N-(3-chloro-4-methoxyphenyl)-9-methyl-3,9-diazaspiro[5.5]undecane-3-carboxamide], the EC50 in test [2] came to 610 nM.
The same measure, in the same setting: with `COc1cc(OC)c(NC(=O)N2CCC3(CCN(C)CC3)CC2)cc1Cl` [Example 9, N-(5-chloro-2,4-dimethoxyphenyl)-9-methyl-3,9-diazaspiro[5.5]undecane-3-carboxamide] the figure was 3740 nM; with `COc1ccc(CC(=O)N2CCC3(CCN(C)CC3)CC2)cc1F` [Example 10, 3-[(3-fluoro-4-methoxyphenyl)acetyl]-9-methyl-3,9-diazaspiro[5.5]undecane], 1690 nM.
